{"source": "patent US10119124B2", "about": "(priority 2007, dated 2018)", "key": {"[1]": {"tested_on": "M2 mutants and wild-type WSN-UdM viruses", "assay_type": "cell-based, influenza A virus"}, "[2]": {"tested_on": "M2 mutants and wild-type WSN-UdM viruses", "settings": "cited from earlier work"}}, "data": [{"smiles": "NC12CC3CC(CC(C3)C1)C2", "note": "[amantadine]", "values": [{"measurement": "effect on yield and plaque size of wild-type WSN-UdM virus", "setting": "[1]", "value": "markedly reduced"}, {"measurement": "concentrations at which the drug selectively inhibits viral replication", "setting": "[2]; cell culture (Appleyard, 1977)", "value": "0.1 to 5", "unit": "µM"}, {"measurement": "concentrations of nonspecific action (increase in pH of endosomes)", "setting": "[2]; cell culture (Daniels et al., 1985)", "value": "> 50", "unit": "μM"}]}]}
